Laboratory results reported in patent US10435396B2, “2-substituted indazoles, methods for producing same, pharmaceutical preparations that contain same, and use of same to produce drugs” (Bayer Pharma Aktiengesellschaft, priority 2016, dated 2019).

Tests used:
human IRAK4 = human IRAK4 (Homo sapiens (Human), UniProt Q9NWZ3); test: IRAK4 kinase assay (IRAK4 TR-FRET assay); format: biochemical; conditions: 1 mM ATP
Method: The IRAK4-inhibitory activity of the substances according to the invention was measured in the IRAK4 TR-FRET assay (TR-FRET=Time Resolved Fluorescence Resonance Energy Transfer) described hereinafter.
Recombinant fusion protein from N-terminal GST (glutathione S-transferase) and human IRAK4, expressed in baculovirus-infected insect cells (Hi5, BTI-TN-5B1-4, cell line purchased from Invitrogen, catalogue No. B855-02) and purified via affinity chromatography, was used as enzyme. The substrate used for the kinase reaction was the biotinylated peptide biotin-Ahx-[…] (C-terminus in amide form) which can be purchased, for example, from Biosyntan GmbH (Berlin-Buch).
For the assay, 11 different concentrations in the range from 20 μM to 0.073 nM were prepared from a 2 mM solution of the test substance in DMSO. 50 nl of the respective solution were pipetted into a black low-volume 384-well microtitre plate (Greiner Bio-One, Frickenhausen, Germany), 2 μl of a solution of IRAK4 in assay buffer [50 mM HEPES pH 7.5, 5 mM MgCl2, 1.0 mM dithiothreitol, 30 μM activated sodium orthovanadate, 0.1% (w/v) of bovine gamma-globulin (BGG) 0.04% (v/v) nonidet-P40 (Sigma)] were added and the mixture was incubated for 15 min to allow prebinding of the substances to the enzyme prior to the kinase reaction. The kinase reaction was then started by addition of 3 μl of a solution of adenosine triphosphate (ATP, 1.67 mM=final concentration in 5 μl of assay volume: 1 mM) and peptide substrate (0.83 μM=final concentration in 5 μl assay volume: 0.5 μM) in assay buffer, and the resulting mixture was incubated at 22° C. for the reaction time of 45 min. The concentration of the IRAK4 was adjusted to the respective activity of the enzyme and set such that the assay was carried out in the linear range. Typical concentrations were in the order of about 0.2 nM. The reaction was stopped by addition of 5 μl of a solution of TR-FRET detection reagents [0.1 μM streptavidin-XL665 (Cisbio Bioassays; France, catalogue No. 610SAXLG)] and 1.5 nM anti-phosphoserine antibody [Merck Millipore, “STK Antibody”, catalogue No. 35-002] and 0.6 nM LANCE EU-W1024-labelled anti-mouse-IgG antibody (Perkin-Elmer, product No. AD0077; alternatively, it is possible to use a terbium cryptate-labelled anti-mouse-IgG antibody from Cisbio Bioassays) in aqueous EDTA solution (100 mM EDTA, 0.4% [w/v] bovine serum albumin [BSA] in 25 mM HEPES pH 7.5).
The resulting mixture was incubated at 22° C. for 1 h to allow formation of a complex of the biotinylated phosphorylated substrate and the detection reagents. The amount of the phosphorylated substrate was then evaluated by measuring the resonance energy transfer from europium chelate-labelled anti-mouse-IgG antibody to streptavidin-XL665. To this end, the fluorescence emissions at 620 nm and 665 nm were measured after excitation at 350 nm in a TR-FRET measuring instrument, for example a Rubystar (BMG Labtechnologies, Offenburg, Germany) or a Viewlux (Perkin-Elmer). The ratio of the emissions at 665 nm and 622 nm was taken as a measure of the amount of phosphorylated substrate. The data were normalized (enzyme reaction without test substance=0% inhibition; all other assay components but no enzyme=100% inhibition). Typically, the test substances were tested on the same microtitre plates at 11 different concentrations in the range from 20 μM to 0.073 nM (20 μM, 5.7 μM, 1.6 μM, 0.47 μM, 0.13 μM, 38 nM, 11 nM, 3.1 nM, 0.89 nM, 0.25 nM and 0.073 nM). The dilution series were prepared prior to the assay (2 mM to 7.3 nM in 100% DMSO) by serial dilutions. The IC50 values were calculated using a 4-parameter fit.

human PBMCs = test: In vitro LPS-induced cytokine production in human PBMCs; format: cell-based; conditions: 0.1 μg/ml LPS, 24 hours
Method: In Vitro LPS (Lipopolysaccharide)-Induced Cytokine Production in Human PBMCs (Peripheral Blood Mononuclear Cells)
The effect of the inventive compounds of the general formula (I) on induced cytokine production in human PBMCs was examined. Cytokine production was induced here by LPS, a TLR4 ligand, which leads to activation of the IRAK4-mediated signal path.
The human PBMCs were obtained from anti-coagulated human whole blood. To this end, 15 ml of Ficoll-Paque (Biochrom, Cat. No. L6115) were initially charged in Leucosep tubes and 20 ml of human blood were added. After centrifugation of the blood at 800 g for 15 min at room temperature, the plasma including the platelets was removed and discarded. The PBMCs were transferred into centrifugation tubes and made up with PBS (phosphate-buffered saline) (Gibco, Cat. No. 14190). The cell suspension was centrifuged at room temperature at 250 g for 10 min and the supernatant was discarded. The PBMCs were resuspended in complete medium (RPMI 1640, without L-glutamine (PAA, Cat. No. E15-039), 10% FCS; 50 U/ml penicillin, 50 μg/ml streptomycin (PAA, Cat. No. P11-010) and 1% L-glutamine (Sigma, Cat. No. G7513)).
The assay was also carried out in complete medium. The PBMCs were sown in 96-well plates at a cell density of 2.5×10^5 cells/well. The compounds according to the invention were subjected to serial dilution in a constant volume of 100% DMSO and used in the assay at 8 different concentrations in the range from 10 μM to 3 nM such that the final DMSO concentration was 0.4% DMSO. Prior to the actual stimulation, the cells were then pre-incubated therewith for 30 min. […] Cell viability was determined using the CellTiter-Glo luminescent assay (Promega, Cat. No. G7571 (G755/G756A)) in accordance with the manufacturer's instructions. The amount of secreted TNF-α in the cell culture supernatant was determined using the Human ProInflammatory 9-Plex Tissue Culture Kit (MSD, Cat. No. K15007B) in accordance with the instructions of the manufacturer. […]

human IRAK4, sequence (Q9NWZ3 whole entry): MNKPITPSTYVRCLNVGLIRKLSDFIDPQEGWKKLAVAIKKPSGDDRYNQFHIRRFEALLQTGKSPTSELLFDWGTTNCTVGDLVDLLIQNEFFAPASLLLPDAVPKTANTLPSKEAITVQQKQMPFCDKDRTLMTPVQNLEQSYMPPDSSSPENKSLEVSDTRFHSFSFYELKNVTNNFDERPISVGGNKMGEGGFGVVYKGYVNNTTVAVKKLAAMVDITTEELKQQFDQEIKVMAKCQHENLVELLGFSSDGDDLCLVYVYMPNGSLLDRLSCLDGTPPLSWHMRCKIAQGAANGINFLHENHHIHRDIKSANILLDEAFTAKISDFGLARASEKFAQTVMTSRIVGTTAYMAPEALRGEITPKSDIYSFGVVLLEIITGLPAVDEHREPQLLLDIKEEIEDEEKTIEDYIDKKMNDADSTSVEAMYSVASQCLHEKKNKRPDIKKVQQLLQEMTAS

IC50 (human IRAK4): 1 nM
SMILES: COc1cc2nn(C3CCN(CCC(C)(C)O)CC3)cc2cc1NC(=O)c1cccc(C(F)(F)F)n1 [Example 52, N-{2-[1-(3-Hydroxy-3-methylbutyl)piperidin-4-yl]-6-methoxy-2H-indazol-5-yl}-6-(trifluoromethyl)pyridine-2-carboxamide]
activity (secreted TNF-α, LPS-induced cytokine production in human PBMCs) (human PBMCs): ≤ 1 µM
